Assay [1] concerns isolated microspores of Helianthus annuus, 007 Genotype. As to the kind of experiment: Callus induction from isolated microspores with different 2,4-D concentrations in induction media II (Example 4.3). The format is cell-based. The protocol: Top row: arrows indicate where embryos are located (magnification). Bottom row: corresponding petri dish.
(§1) Solution of microspore density of 80.000 microspores per ml are centrifuged for 10 min at 200 g and supernatant is decanted. Induction media I (see, for example, Table 3.4) is added to the remaining microspores and divided into plastic tubes. Histone deacetylase inhibitor (HDACi) and colchicine are added to each tube and microspore solutions are stored at 26° C. for 2 days. If the HDACi trichostatin A (TSA) is used, it is dissolved in dimethylsulfoxide (DMSO) to a final concentration of between 1M and 10 μM, preferably 100 nM to 10 μM, more preferably 1 μM to 10 μM, depending on the genotype and the plant donor sources. If colchicine is used, it is dissolved in water to a final concentration of between 1 mg and 500 mg, preferably 10 mg to 200 mg, more preferably 50 mg to 100 mg, depending on the genotype and the plant donor sources. The HDACi and the chromosome doubling agent are removed by centrifugation for 10 min, 200 g. Supernatant is decanted, corresponding amount of induction media I is added, and microspores resuspended. Tubes are incubated at 26° C. in the dark for several days.
Thereafter, microspore solutions are centrifuged for 10 min at 200 g and supernatant is decanted. Corresponding amounts of induction media II with different 2,4-D concentrations is added according to the treatments (see, for example, Table 3.5) and the microspore solution is plated in petri dishes and placed at 26° C. for callus induction.
Depending on tissue culture length, and the tissue culture system, at least one antibiotic can be added to Incubation Medium II, such as carbenicillin, penicillin or timentin. One to two weeks after isolation, the first microspore nuclear division can be observed (DAPI staining). Callus structures can be seen by eye after approximately three weeks after isolation.

In assay [2] the test system is sunflower microspore derived calluses. Briefly: Plant regeneration: shoots regenerated per callus unit after callus induction with auxin analogs (Example 4.2). The note with it: auxin analog used during callus induction (FIG. 8B). In kind it is cell-based, Helianthus annuus. Here is the method:
Thereafter, microspore solutions are centrifuged for 10 min at 200 g and supernatant is decanted. Corresponding amounts of induction media II with different auxin and auxin analogs is added according to the treatments (see, for example, Table 3.3) and the microspore solution is plated in petri dishes and placed at […] for callus induction. Abbreviations used in Table 3.3: 3.5ME=3,5-dimethylphenoxyacetic acid; PHAA=Phenoxyacetic acid; 4-CPA or 4CIPA=p-Chlorophenoxyacetic acid.
Callus is removed from liquid media and transferred to regeneration media (see, for example, Table 4) with 1 mg/L BAP and grown at 26° C. in the light until plant regeneration is observed, approximately 2 weeks after transfer (FIG. 4)

In assay [3] the test system is isolated microspores of Helianthus annuus. As to the kind of experiment: Callus induction from isolated microspores with auxin analogs in induction media II (Example 4.2). To be noted: 1 mg/L (FIG. 8A), control with 2,4-D. In kind it is cell-based. The protocol: as §1, with “example, Table 3.2) is added” for “example, Table 3.4) is added”, “of between 1 nM and 10” for “of between 1M and 10”, “mg and 300 mg, preferably” for “mg and 500 mg, preferably”, “donor sources. Another antimitotic agent, e.g., oryzalin and/or trifluralin, or any other chromosome doubling agent may be used as well. The HDACi” for “donor sources. The HDACi”, “microspores resuspended. Usually, an auxin or a (synthetic) analog thereof will usually be applied in a concentration of about 0.05 to about 3 mg/L. Tubes are” for “microspores resuspended. Tubes are”, “several days. […]” for “several days.”

The test system of assay [4] is microspore derived sunflower shoots. Briefly: Plant rooting of microspore derived shoots in rooting media (Example 5.2). The note with it: rooting media (MS), 24° C. in the light, approximately 2 weeks after transfer; auxin 0.5 mg/L. In kind it is in vivo, Helianthus annuus. Here is the method: Shoots are transferred to growing/rooting medium (see, for example, Table 5) with or without one auxin (in the example PAA (phenylacetic acid) or IBA were used) and grown at 24° C. in the light until root formation is observed, approximately 2 weeks after transfer (FIG. 10).

As to `O=C(O)COc1ccc(Cl)cc1Cl` [2,4-D, 2,4-Dichlorophenoxyacetic acid], in assay [1] (0.5, 0.2, 0.1 mg/L 2,4-D and Ctrl 1 mg/L 2,4-D), the “Generation of microspore-derived embryos” value is “observed in all treatments”. The “Induction of microspore division and callus formation” value in assay [1] (0.5, 0.2, 0.1 mg/L 2,4-D and Ctrl 1 mg/L in induction media II, 007 Genotype (FIG. 9)) is “able to induce microspore division and callus formation”. Also, in assay [1] (0.5, 0.2, 0.1 mg/L 2,4-D versus Ctrl 1 mg/L 2,4-D), the “Callus formation of the treatments compared with control” value is listed as “did not decreased or enhanced callus formation”. Turning to `Cc1cc(C)cc(OCC(=O)O)c1` [3.5ME, 3,5-dimethylphenoxyacetic acid], the “Regeneration: number of shoots regenerated per callus unit in comparison to control” value in assay [2] is given as “tendency to increase regeneration”. On to `O=C(O)COc1ccc(Cl)cc1` [4CIPA/4-CPA, p-Chlorophenoxyacetic acid], for which the “Callus quantity (callus number) in comparison to control” value in assay [3] was “tendency to increase callus quantity”. The “Regeneration: number of shoots regenerated per callus unit in comparison to control” value in assay [2] was “tendency to increase regeneration”. For the compound `O=C(O)CCCc1c[nH]c2ccccc12` [IBA, indole-3-butyric acid], the “Cultivated plants showing root formation” value in assay [4] is reported as 68%.

These data come from patent US20250268165A1, “METHOD FOR PRODUCING HAPLOID AND DOUBLED HAPLOID SUNFLOWER PLANTS BY MICROSPORE CULTURE” (KWS SAAT SE & Co. KGaA, priority 2022, published 2025).
